Source: paper PMC4551390 (Leukemia, 2015)

Test system: relapsed and refractory CLL patients
Experiment: Phase I dose escalation: toxicity and tolerability
Format: in vivo, human
[1] = treatment related, all cohorts, N=52

Structure (SMILES): CCc1cnn2c(NCc3ccc[n+]([O-])c3)cc(N3CCCC[C@H]3CCO)nc12 [Dinaciclib]
- maximally tolerated dose (2 hour infusion weekly x 3 of every 4 weeks): 14 mg/m^2
- other patients who discontinued therapy due to toxicity (all patients): Five
- patients off therapy for adverse events (all patients): 10%
- deaths within 30 days of last dose (all patients, two due to disease progression): 3
- No Pts with Dose Reduction (cohort 5 mg/m^2): 0
- Pts with DLT (cohort 5 mg/m^2): 0
- No Pts with Dose Reduction (cohort 7 mg/m^2): 0
- Pts with DLT (cohort 7 mg/m^2): 1
- No Pts with Dose Reduction (cohort 10 mg/m^2): 1
- Pts with DLT (cohort 10 mg/m^2): 0
- No Pts with Dose Reduction (cohort 14 mg/m^2): 5
- Pts with TLS (cohort 14 mg/m^2): 4
- Pts with TLS (Dialysis) (cohort 14 mg/m^2, requiring dialysis): 1
- No Pts with Dose Reduction (cohort 17 mg/m^2): 1
- Pts with TLS (cohort 17 mg/m^2): 1 (1)
- Pts with TLS (Dialysis) (cohort 17 mg/m^2, requiring dialysis): 1 (1)
- No Pts with Dose Reduction (cohort 7→10→14 mg/m^2): 1
- Pts with TLS (cohort 7→10→14 mg/m^2): 1 (1)
- No Pts with Dose Reduction (cohort 10→14 mg/m^2): 1
- Pts with TLS (cohort 10→14 mg/m^2): 2
- Anemia, Grade 1 [1]: 8 (15) No (%)
- Anemia, Grade 2 [1]: 17 (33) No (%)
- Anemia, Grade 3 [1]: 14 (27) No (%)
- Anemia, Grade 4 [1]: 1 (2) No (%)
- Anemia, Total [1]: 40 (77) No (%)
- Constipation, Grade 1 [1]: 4 (8) No (%)
- Constipation, Grade 2 [1]: 1 (2) No (%)
- Constipation, Grade 3 [1]: 1 (2) No (%)
- Constipation, Grade 4 [1]: 0 (0) No (%)
- Constipation, Total [1]: 6 (12) No (%)
- Cytokine release, Grade 1 [1]: 1 (2) No (%)
- Cytokine release, Grade 2 [1]: 6 (12) No (%)
- Cytokine release, Grade 3 [1]: 1 (2) No (%)
- Cytokine release, Grade 4 [1]: 0 (0) No (%)
- Cytokine release, Total [1]: 8 (15) No (%)
- Diarrhea, Grade 1 [1]: 14 (27) No (%)
- Diarrhea, Grade 2 [1]: 7 (13) No (%)
- Diarrhea, Grade 3 [1]: 2 (4) No (%)
- Diarrhea, Grade 4 [1]: 0 (0) No (%)
- Diarrhea, Total [1]: 23 (44) No (%)
- Fatigue, Grade 1 [1]: 7 (13) No (%)
- Fatigue, Grade 2 [1]: 8 (15) No (%)
- Fatigue, Grade 3 [1]: 2 (4) No (%)
- Fatigue, Grade 4 [1]: 0 (0) No (%)
- Fatigue, Total [1]: 17(33) No (%)
- Herpes infection, Grade 1 [1]: 2 (4) No (%)
- Herpes infection, Grade 2 [1]: 1 (2) No (%)
- Herpes infection, Grade 3 [1]: 0 (0) No (%)
- Herpes infection, Grade 4 [1]: 0 (0) No (%)
- Herpes infection, Total [1]: 3 (6) No (%)
- Hyperglycemia, Grade 1 [1]: 8 (15) No (%)
- Hyperglycemia, Grade 2 [1]: 16 (31) No (%)
- Hyperglycemia, Grade 3 [1]: 11 (21) No (%)
- Hyperglycemia, Grade 4 [1]: 0 (0) No (%)
- Hyperglycemia, Total [1]: 35 (67) No (%)
- Hyperkalemia, Grade 1 [1]: 7 (13) No (%)
- Hyperkalemia, Grade 2 [1]: 3 (6) No (%)
- Hyperkalemia, Grade 3 [1]: 3 (6) No (%)
- Hyperkalemia, Grade 4 [1]: 3 (6) No (%)
- Hyperphosphatemia, Grade 1 [1]: 6 (12) No (%)
- Hyperphosphatemia, Grade 2 [1]: 1 (2) No (%)
- Hyperphosphatemia, Grade 3 [1]: 0 (0) No (%)
- Hyperphosphatemia, Grade 4 [1]: 0 (0) No (%)
- Hyperphosphatemia, Total [1]: 7 (13) No (%)
- Hypoalbuminemia, Grade 1 [1]: 12 (23) No (%)
- Hypoalbuminemia, Grade 2 [1]: 3 (6) No (%)
- Hypoalbuminemia, Grade 3 [1]: 0 (0) No (%)
- Hypoalbuminemia, Grade 4 [1]: 0 (0) No (%)
- Hypoalbuminemia, Total [1]: 15 (29) No (%)
- Hypocalcemia, Grade 1 [1]: 17 (33) No (%)
- Hypocalcemia, Grade 2 [1]: 1 (2) No (%)
- Hypocalcemia, Grade 3 [1]: 9 (17) No (%)
- Hypocalcemia, Grade 4 [1]: 0 (0) No (%)
- Hypocalcemia, Total [1]: 27 (52) No (%)
- Hypokalemia, Grade 1 [1]: 17 (33) No (%)
- Hypokalemia, Grade 2 [1]: 1 (2) No (%)
- Hypokalemia, Grade 3 [1]: 9 (17) No (%)
- Hypokalemia, Grade 4 [1]: 0 (0) No (%)
- Hypokalemia, Total [1]: 27 (52) No (%)
- Hyponatremia, Grade 1 [1]: 18 (35) No (%)
- Hyponatremia, Grade 2 [1]: 0 (0) No (%)
- Hyponatremia, Grade 3 [1]: 1 (2) No (%)
- Hyponatremia, Grade 4 [1]: 0 (0) No (%)
- Hyponatremia, Total [1]: 19 (37) No (%)
- Hypophosphatemia, Grade 1 [1]: 6 (12) No (%)
- Hypophosphatemia, Grade 2 [1]: 5 (10) No (%)
- Hypophosphatemia, Grade 3 [1]: 6 (12) No (%)
- Hypophosphatemia, Grade 4 [1]: 1 (2) No (%)
- Hypophosphatemia, Total [1]: 18 (35) No (%)
- Increased ALT, Grade 1 [1]: 6 (12) No (%)
- Increased ALT, Grade 2 [1]: 9 (17) No (%)
- Increased ALT, Grade 3 [1]: 5 (10) No (%)
- Increased ALT, Grade 4 [1]: 0 (0) No (%)
- Increased ALT, Total [1]: 20 (38) No (%)
- Increased AST, Grade 1 [1]: 11 (21) No (%)
- Increased AST, Grade 2 [1]: 8 (15) No (%)
- Increased AST, Grade 3 [1]: 13 (25) No (%)
- Increased AST, Grade 4 [1]: 2 (4) No (%)
- Increased AST, Total [1]: 34 (65) No (%)
- Increased Alkaline Phosphatase, Grade 1 [1]: 8 (15) No (%)
- Increased Alkaline Phosphatase, Grade 2 [1]: 1 (2) No (%)
- Increased Alkaline Phosphatase, Grade 3 [1]: 0 (0) No (%)
- Increased Alkaline Phosphatase, Grade 4 [1]: 0 (0) No (%)
- Increased Alkaline Phosphatase, Total [1]: 9 (17) No (%)
- Increased bilirubin, Grade 1 [1]: 5 (10) No (%)
- Increased bilirubin, Grade 2 [1]: 0 (0) No (%)
- Increased bilirubin, Grade 3 [1]: 0 (0) No (%)
- Increased bilirubin, Grade 4 [1]: 0 (0) No (%)
- Increased bilirubin, Total [1]: 5 (10) No (%)
- Increased creatinine, Grade 1 [1]: 11 (21) No (%)
- Increased creatinine, Grade 2 [1]: 3 (6) No (%)
- Increased creatinine, Grade 3 [1]: 0 (0) No (%)
- Increased creatinine, Grade 4 [1]: 0 (0) No (%)
- Increased creatinine, Total [1]: 14 (27) No (%)
- Nausea, Grade 1 [1]: 10 (19) No (%)
- Nausea, Grade 2 [1]: 3 (6) No (%)
- Nausea, Grade 3 [1]: 0 (0) No (%)
- Nausea, Grade 4 [1]: 0 (0) No (%)
- Nausea, Total [1]: 13 (25) No (%)
- Neutropenia, Grade 1 [1]: 3 (6) No (%)
- Neutropenia, Grade 2 [1]: 2 (4) No (%)
- Neutropenia, Grade 4 [1]: 28 (54) No (%)
- Neutropenia, Total [1]: 44 (85) No (%)
- Pharyngitis/sinusitis/respiratory infection, Grade 1 [1]: 2 (4) No (%)
- Pharyngitis/sinusitis/respiratory infection, Grade 2 [1]: 2 (4) No (%)
- Pharyngitis/sinusitis/respiratory infection, Grade 3 [1]: 0 (0) No (%)
- Pharyngitis/sinusitis/respiratory infection, Grade 4 [1]: 0 (0) No (%)
- Pharyngitis/sinusitis/respiratory infection, Total [1]: 4 (8) No (%)
- Pneumonia, Grade 1 [1]: 0 (0) No (%)
- Pneumonia, Grade 2 [1]: 0 (0) No (%)
- Pneumonia, Grade 3 [1]: 2 (4) No (%)
- Pneumonia, Total [1]: 2 (4) No (%)
- Sepsis, Grade 1 [1]: 0 (0) No (%)
- Sepsis, Grade 2 [1]: 0 (0) No (%)
- Sepsis, Grade 3 [1]: 1 (2) No (%)
- Sepsis, Grade 4 [1]: 0 (0) No (%)
- Sepsis, Total [1]: 1 (2) No (%)
- Thrombocytopenia, Grade 1 [1]: 10 (19) No (%)
- Thrombocytopenia, Grade 2 [1]: 6 (12) No (%)
- Thrombocytopenia, Grade 3 [1]: 11 (21) No (%)
- Thrombocytopenia, Grade 4 [1]: 10 (19) No (%)
- Thrombocytopenia, Total [1]: 37 (71) No (%)
- Tumor lysis syndrome, Grade 1 [1]: 0 (0) No (%)
- Tumor lysis syndrome, Grade 2 [1]: 0 (0) No (%)
- Tumor lysis syndrome, Grade 3 [1]: 7 (13) No (%)
- Tumor lysis syndrome, Grade 4 [1]: 1 (2) No (%)
- Tumor lysis syndrome, Total [1]: 8 (15) No (%)
- Urosepsis, Grade 1 [1]: 0 (0) No (%)
- Urosepsis, Grade 2 [1]: 0 (0) No (%)
- Urosepsis, Grade 3 [1]: 0 (0) No (%)
- Urosepsis, Grade 4 [1]: 1 (2) No (%)
- Urosepsis, Total [1]: 1 (2) No (%)
